Assay [1] concerns the target Serine/threonine-protein kinase BRSK1 (Homo sapiens, UniProt Q8TDC3). The class given is functional.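 Note: measured within a kinome-wide kinase panel, with the target listed as KIAA1811.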
Assay [2] concerns the target Casein kinase I isoform alpha (Homo sapiens, UniProt P48729). The class given is functional.
Assay [3] concerns the target Serine/threonine-protein kinase 3 (Homo sapiens, UniProt Q13188). The class given is functional.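 Note: measured as one member of a kinome-wide kinase panel.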
The target in assay [4] is Glycogen synthase kinase-3 alpha (Homo sapiens, UniProt P49840). It counts as functional.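 Note: GSK3A result taken from a broad kinome-wide kinase panel.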
Chain of Glycogen synthase kinase-3 alpha (P49840 whole entry): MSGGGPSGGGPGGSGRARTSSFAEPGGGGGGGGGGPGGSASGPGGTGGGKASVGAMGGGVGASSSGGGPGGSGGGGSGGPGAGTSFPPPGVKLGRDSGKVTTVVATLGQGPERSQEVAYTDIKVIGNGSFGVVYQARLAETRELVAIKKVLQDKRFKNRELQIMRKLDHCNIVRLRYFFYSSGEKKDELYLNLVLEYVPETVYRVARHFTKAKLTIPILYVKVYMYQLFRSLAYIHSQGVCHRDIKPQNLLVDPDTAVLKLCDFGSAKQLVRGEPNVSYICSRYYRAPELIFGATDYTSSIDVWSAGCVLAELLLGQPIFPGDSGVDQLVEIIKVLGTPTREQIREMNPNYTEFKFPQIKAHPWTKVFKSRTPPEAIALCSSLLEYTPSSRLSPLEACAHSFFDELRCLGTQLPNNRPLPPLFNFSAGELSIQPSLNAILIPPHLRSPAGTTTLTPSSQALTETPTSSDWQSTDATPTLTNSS
The target in assay [5] is Cyclin-dependent kinase 1 (Homo sapiens, UniProt P06493). The class given is functional.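 Note: Kinome-wide panel profiling, with the target listed as panel member CDC2.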
The target of assay [6] is Mitogen-activated protein kinase 8 (Homo sapiens, UniProt P45983). It counts as functional.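 Note: value comes from one member of a kinome-wide kinase profiling panel.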
Chain of Mitogen-activated protein kinase 8 (P45983 whole entry): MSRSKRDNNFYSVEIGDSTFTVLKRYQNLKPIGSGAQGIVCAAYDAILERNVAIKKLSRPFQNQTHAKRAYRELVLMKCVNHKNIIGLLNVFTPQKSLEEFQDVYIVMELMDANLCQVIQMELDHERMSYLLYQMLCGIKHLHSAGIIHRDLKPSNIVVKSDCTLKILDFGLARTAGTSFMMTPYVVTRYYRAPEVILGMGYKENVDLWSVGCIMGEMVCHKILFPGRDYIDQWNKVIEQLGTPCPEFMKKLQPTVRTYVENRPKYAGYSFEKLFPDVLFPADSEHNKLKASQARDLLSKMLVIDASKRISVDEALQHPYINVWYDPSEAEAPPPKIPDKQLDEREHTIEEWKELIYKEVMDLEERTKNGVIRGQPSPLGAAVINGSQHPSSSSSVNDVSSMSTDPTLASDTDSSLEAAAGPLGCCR
Assay [7] addresses cAMP-dependent protein kinase catalytic subunit alpha (Homo sapiens, UniProt P17612). The class given is functional.
The target of assay [8] is cGMP-dependent protein kinase 1 (Homo sapiens, UniProt Q13976). The class given is functional.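 Note: value from a kinome panel screen with PRKG1 as the panel member.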
The target of assay [9] is Fibroblast growth factor receptor 3 (Homo sapiens, UniProt P22607). The class given is functional.
Assay [10] has as its target Macrophage colony-stimulating factor 1 receptor (Homo sapiens, UniProt P07333). The class given is functional.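 Note: value comes from the Navigating the Kinome screening panel, CSF1R member.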
In assay [11] the target is Tyrosine-protein kinase Fyn (Homo sapiens, UniProt P06241). It counts as functional.
In assay [12] the target is MAP kinase-activated protein kinase 3 (Homo sapiens, UniProt Q16644). The class given is functional.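 Note: value comes from a kinome-wide profiling panel in which MAPKAPK3 is one of the panel members.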
Chain of MAP kinase-activated protein kinase 3 (Q16644 whole entry): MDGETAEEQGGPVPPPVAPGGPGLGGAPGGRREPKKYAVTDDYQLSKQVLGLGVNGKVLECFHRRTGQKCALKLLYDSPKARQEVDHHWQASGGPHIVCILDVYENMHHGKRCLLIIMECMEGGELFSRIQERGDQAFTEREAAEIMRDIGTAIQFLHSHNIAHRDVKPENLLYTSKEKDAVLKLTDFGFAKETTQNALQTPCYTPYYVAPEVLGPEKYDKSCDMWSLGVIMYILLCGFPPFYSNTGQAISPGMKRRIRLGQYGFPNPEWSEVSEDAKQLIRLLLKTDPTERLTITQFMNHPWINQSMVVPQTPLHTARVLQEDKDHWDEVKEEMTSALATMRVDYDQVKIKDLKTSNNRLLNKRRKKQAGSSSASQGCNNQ
The target in a further assay is Ephrin type-A receptor 2 (Homo sapiens, UniProt P29317). The class given is functional.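 Note: EPHA2 tested as one member of a kinome-wide kinase panel.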
Chain of Ephrin type-A receptor 2 (P29317 whole entry): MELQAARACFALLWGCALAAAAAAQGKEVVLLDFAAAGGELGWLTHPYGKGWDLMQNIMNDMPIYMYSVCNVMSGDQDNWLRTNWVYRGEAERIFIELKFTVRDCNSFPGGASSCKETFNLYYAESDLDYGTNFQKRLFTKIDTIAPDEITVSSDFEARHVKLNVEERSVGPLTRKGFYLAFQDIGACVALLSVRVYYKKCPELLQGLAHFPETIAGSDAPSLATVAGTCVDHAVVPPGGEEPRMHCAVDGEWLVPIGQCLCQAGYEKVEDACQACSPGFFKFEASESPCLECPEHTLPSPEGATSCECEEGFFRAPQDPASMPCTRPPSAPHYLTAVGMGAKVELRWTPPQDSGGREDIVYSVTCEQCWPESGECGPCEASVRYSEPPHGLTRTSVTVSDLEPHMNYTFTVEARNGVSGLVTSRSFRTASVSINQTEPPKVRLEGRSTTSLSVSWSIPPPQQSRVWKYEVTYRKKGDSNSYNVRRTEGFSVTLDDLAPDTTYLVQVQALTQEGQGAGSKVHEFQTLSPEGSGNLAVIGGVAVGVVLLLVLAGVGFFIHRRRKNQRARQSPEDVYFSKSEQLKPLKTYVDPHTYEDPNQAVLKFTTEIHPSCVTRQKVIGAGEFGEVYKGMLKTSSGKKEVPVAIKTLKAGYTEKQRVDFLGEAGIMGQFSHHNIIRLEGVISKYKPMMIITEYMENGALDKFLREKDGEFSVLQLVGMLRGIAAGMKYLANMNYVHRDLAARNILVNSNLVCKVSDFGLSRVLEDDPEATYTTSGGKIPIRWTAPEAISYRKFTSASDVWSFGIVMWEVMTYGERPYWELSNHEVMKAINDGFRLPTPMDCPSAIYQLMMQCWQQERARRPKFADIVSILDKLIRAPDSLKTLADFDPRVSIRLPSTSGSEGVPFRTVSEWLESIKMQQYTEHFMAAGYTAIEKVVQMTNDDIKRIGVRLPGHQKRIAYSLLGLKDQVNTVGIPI
Assay [13] addresses Protein kinase C zeta type (Homo sapiens, UniProt Q05513). The class given is functional.
For assay [14], the target named is Fibroblast growth factor receptor 1 (Homo sapiens, UniProt P11362). It counts as functional.
Assay [15] deals with Serine/threonine-protein kinase pim-3 (Homo sapiens, UniProt Q86V86). It counts as functional.
In assay [16] the target is Dual specificity protein kinase CLK2 (Homo sapiens, UniProt P49760). It counts as functional.
Assay [17] has as its target Mitogen-activated protein kinase 1 (Homo sapiens, UniProt P28482). It counts as functional.
For assay [18], the target named is Tyrosine-protein kinase JAK2 (Homo sapiens, UniProt O60674). It counts as functional.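 Note: JAK2 tested as one member of a kinase panel.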
Chain of Tyrosine-protein kinase JAK2 (O60674 whole entry): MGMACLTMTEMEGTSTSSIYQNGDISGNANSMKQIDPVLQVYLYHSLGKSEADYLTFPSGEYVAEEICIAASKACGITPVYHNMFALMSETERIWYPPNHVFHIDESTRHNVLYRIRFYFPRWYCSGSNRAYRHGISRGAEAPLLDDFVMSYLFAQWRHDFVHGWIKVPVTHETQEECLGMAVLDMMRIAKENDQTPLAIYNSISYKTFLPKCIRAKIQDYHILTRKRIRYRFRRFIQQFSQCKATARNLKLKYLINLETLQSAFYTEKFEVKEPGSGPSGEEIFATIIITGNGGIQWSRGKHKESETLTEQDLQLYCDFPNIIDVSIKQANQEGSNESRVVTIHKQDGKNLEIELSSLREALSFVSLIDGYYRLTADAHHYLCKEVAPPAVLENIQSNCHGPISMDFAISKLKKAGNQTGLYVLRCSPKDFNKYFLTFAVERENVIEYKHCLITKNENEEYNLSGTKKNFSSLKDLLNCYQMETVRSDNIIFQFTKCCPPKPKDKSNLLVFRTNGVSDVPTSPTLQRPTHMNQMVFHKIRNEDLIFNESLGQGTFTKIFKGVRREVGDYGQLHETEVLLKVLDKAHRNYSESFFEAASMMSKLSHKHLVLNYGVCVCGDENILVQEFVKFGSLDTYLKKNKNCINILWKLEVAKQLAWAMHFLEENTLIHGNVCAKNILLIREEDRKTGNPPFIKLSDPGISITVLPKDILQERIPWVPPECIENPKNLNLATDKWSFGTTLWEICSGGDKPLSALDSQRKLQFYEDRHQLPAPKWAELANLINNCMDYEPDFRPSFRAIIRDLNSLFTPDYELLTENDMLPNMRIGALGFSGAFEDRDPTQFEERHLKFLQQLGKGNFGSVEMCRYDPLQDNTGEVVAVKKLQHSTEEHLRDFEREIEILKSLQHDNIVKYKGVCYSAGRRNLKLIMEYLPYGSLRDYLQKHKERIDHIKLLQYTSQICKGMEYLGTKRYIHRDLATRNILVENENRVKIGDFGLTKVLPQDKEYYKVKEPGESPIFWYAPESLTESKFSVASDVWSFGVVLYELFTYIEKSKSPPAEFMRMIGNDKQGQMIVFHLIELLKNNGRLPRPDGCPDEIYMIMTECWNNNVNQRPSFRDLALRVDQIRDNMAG
In assay [19] the target is RAC-alpha serine/threonine-protein kinase (Homo sapiens, UniProt P31749). It counts as functional.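 Note: AKT1 affinity measured as one member of a kinome-wide kinase profiling panel.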
The target of assay [20] is Dual specificity protein kinase CLK4 (Homo sapiens, UniProt Q9HAZ1). It counts as functional.
For assay [21], the target named is Megakaryocyte-associated tyrosine-protein kinase (Homo sapiens, UniProt P42679). It counts as functional.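 Note: affinity measured as one member of a kinase panel (Navigating the Kinome) against MATK.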
In assay [22] the target is Phosphoethanolamine/phosphocholine phosphatase (Homo sapiens, UniProt Q8TCT1). Description: SAR assay for compounds that inhibit PHOSPHO1. [Related pubchem assays (depositor defined):AID1545, AID1565, AID1574].
Chain of Phosphoethanolamine/phosphocholine phosphatase (Q8TCT1 whole entry): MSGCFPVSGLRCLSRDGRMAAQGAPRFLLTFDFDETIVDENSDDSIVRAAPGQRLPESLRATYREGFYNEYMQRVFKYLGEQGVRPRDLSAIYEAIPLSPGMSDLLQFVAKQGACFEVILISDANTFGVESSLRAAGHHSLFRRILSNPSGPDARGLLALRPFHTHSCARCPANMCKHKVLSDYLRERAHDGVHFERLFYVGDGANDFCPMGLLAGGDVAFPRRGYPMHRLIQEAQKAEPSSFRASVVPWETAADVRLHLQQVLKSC
A short description of assay [23]: Luminescence Cell-Based Dose Response HTS to Identify Activators of Luciferase Translation or Activity in H4 […] Cells. [Related pubchem assays: 1829 (Project Summary), 1814 (Primary HTS)]. It counts as functional.
In assay [24] the target is DNA dC->dU-editing enzyme APOBEC-3A (Homo sapiens, UniProt P31941). Description: APOBEC3A DNA deaminase inhibitors, dose response, biochemical (AID 504722). The class given is functional.
Chain of DNA dC->dU-editing enzyme APOBEC-3A (P31941 whole entry): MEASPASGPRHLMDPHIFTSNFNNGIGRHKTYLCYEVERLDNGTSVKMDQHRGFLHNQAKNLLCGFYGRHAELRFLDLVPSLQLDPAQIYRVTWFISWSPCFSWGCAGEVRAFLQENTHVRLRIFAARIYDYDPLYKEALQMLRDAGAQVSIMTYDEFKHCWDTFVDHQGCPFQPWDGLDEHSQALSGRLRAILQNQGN
Assay [25] in a line: Luminescence-based dose response cell-based high throughput screening assay for cytotoxic compounds using the IEC-6 intestinal epithelial cell line. [Related pubchem assays: 1858 (Summary AID.), 1825 (Counterscreen.), 1907 (Confirmation screen.)]. The class given is functional. (The purpose of a counterscreen is to sort out artefacts and off-target activity.)
Assay [26] deals with T1, RNA-binding protein pos-1 (Caenorhabditis elegans, UniProt G5EF15).
T1 sequence (G5EF15 whole entry): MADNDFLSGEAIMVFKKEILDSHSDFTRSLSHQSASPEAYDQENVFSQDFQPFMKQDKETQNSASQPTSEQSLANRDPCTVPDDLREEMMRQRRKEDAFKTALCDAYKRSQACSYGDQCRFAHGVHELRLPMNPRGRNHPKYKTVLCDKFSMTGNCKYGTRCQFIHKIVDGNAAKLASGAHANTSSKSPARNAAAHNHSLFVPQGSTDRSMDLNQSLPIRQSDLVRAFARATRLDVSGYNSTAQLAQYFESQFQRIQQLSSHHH
Description: inhibitors of POS-1/mex-3 RNA binding, dose response, biochemical, fluorescence polarization (AID 1964).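 Note: purified POS-1 fused to maltose binding protein made in E. coli; potency of compounds blocking POS-1 binding to fluorescent RNA.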

Assay [27] has as its target T2, Zinc finger protein mex-5 (Caenorhabditis elegans, UniProt Q9XUB2).
T2 sequence (Q9XUB2 whole entry): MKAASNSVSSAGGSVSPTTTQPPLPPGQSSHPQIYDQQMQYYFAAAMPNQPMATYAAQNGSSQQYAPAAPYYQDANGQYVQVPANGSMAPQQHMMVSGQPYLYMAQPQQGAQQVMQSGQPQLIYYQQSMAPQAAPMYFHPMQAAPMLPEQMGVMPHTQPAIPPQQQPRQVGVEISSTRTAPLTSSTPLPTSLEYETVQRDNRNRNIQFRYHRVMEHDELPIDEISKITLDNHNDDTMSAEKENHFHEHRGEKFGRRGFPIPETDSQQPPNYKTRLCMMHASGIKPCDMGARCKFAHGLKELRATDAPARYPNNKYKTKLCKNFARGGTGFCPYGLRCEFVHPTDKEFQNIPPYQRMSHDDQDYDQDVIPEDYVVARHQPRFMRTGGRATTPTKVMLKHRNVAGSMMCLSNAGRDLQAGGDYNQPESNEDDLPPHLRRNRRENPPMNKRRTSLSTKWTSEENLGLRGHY
Description: MEX-5/TCR-2 RNA interaction inhibitors, dose response, biochemical, C. elegans, fluorescence polarization (AID 1960).

Assay [28] in a line: Artemis endonuclease inhibitor potency, dose response, biochemical, fluorescence intensity (AID 720701).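 Note: Artemis endonuclease enzyme.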 The class given is functional.
The subject of another assay is INS1. Description: beta cell apoptosis inhibitors, cytokine rescue, dose response, luminescence, retest (AID 449756).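 Note: cell death triggered by IL-1 beta plus TNF-alpha plus IFN-gamma mixture; protective hits raise ATP signal compared with cytokine alone wells.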 To be noted: Rattus norvegicus. It counts as functional, cell-based.
Assay [29] is described as follows: C. albicans growth with fluconazole, confirmation, fluorescence, retest (AID 2467). It counts as functional, cell-based.
The next assay relates to HEK293. Description: SAR Analysis of small molecule inhibitors of T-cell specific antigen receptor-induced NF-kB activation in a HEK-293T cell line using a luminescence assay. [Related pubchem assays (depositor defined):AID435003, AID435012, AID489026]. The class given is functional, cell-based. To be noted: Homo sapiens.

The structures appear in SMILES notation. Where “and” joins values, the source holds several entries; their conditions need not be identical. Equal values may be shown once. Calls of active or inactive are those of the source.

As a reminder, the Ki is the equilibrium dissociation constant of an inhibitor or competing ligand from its target. Broadly, the IC50 is the concentration that gives 50% inhibition. Usually EC50 stands for the concentration at which the effect is half-maximal. By AC50 is commonly meant the concentration at which the activity in the assay is half-maximal.

Chain of Serine/threonine-protein kinase 3 (Q13188 whole entry): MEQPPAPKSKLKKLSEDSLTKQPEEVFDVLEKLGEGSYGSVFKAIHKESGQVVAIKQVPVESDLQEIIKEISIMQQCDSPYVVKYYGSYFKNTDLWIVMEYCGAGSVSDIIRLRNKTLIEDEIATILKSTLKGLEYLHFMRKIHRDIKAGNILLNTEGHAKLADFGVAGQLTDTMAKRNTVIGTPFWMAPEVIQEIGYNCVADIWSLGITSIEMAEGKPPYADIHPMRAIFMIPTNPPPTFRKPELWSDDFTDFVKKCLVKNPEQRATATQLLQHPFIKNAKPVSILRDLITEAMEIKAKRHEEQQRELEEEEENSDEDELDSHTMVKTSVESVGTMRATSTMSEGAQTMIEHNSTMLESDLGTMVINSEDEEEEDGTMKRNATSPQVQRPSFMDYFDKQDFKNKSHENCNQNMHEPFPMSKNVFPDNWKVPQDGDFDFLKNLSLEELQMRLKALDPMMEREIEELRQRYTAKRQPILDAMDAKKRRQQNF
Chain of Mitogen-activated protein kinase 1 (P28482 whole entry): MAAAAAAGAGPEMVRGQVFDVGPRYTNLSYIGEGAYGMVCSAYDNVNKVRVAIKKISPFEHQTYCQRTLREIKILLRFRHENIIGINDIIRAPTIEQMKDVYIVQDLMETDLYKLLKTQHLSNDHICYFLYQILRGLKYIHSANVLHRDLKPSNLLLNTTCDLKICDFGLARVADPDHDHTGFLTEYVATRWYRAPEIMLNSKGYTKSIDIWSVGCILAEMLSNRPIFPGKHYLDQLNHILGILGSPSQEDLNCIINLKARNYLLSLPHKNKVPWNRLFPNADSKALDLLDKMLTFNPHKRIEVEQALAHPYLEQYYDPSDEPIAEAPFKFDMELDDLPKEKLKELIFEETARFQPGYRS

Take `Cc1cccc(NC(=O)Nc2ccc3c(c2)CCc2sc4ncnc(N)c4c2-3)c1`: the inhibition constant Ki in [1] is 3.16 µM (active); in assay [2], > 6.31 µM (inactive); in assay [3], > 7.94 µM (inactive); in assay [4], > 7.94 µM (inactive); in [5], > 7.94 µM (inactive); in assay [6], > 3.16 µM (inactive). The Ki was > 7.94 µM (inactive) in [7]; > 2 µM (inactive) in [8]; > 2 µM (inactive) in [9]; > 2.51 µM (inactive) in [10]; > 0.794 µM (inactive) in [11]; > 10 µM (inactive) in assay [12]. Besides, the Ki on Ephrin type-A receptor 2 was 0.0316 µM (active); in assay [13], > 7.94 µM (inactive); in assay [14], 2.51 µM (active); in assay [15] it was 5.01 µM (active); in assay [16] it was 1 µM (active); in assay [17] it was > 7.94 µM (inactive). Further, the Ki was > 1.58 µM (inactive) in assay [18], > 7.94 µM (inactive) in assay [19], 0.126 µM (active) in assay [20] and > 2 µM (inactive) in assay [21].

For the molecule `Cc1ccc(-n2sc3ccccc3c2=O)cc1`, the IC50 is 2.28 µM (inactive) and 1.46 µM (inactive) in [22]; > 100 µM (inactive) in assay [24]. In addition, the EC50 in [23] was 23.3 µM (active).

Turning to `CCC(=O)NC(c1ccc(C)cc1)c1ccc2cccnc2c1O` (configuration not stated), the IC50 in assay [25] is 1.62 µM (active).

In the case of `N/C(=N\N=C/c1ccc(-c2ccc(O)c(C(=O)O)c2)o1)N[N+](=O)[O-]`, the EC50 was 29.9 µM (active) in [26] and 26.1 µM (active) in assay [27].

With `CC(=O)N(/N=C1\Sc2ccccc2C1=O)c1ccccc1C`, in assay [28], the IC50 is 7.4 µM (active).

For the molecule `CCCC(=O)NC(c1ccc(Cl)cc1)c1ccc2cccnc2c1O` (configuration not stated), the AC50 in the assay with INS1 is 0.458 µM (active). In addition, in [29], the EC50 is 0.365 µM (active). Moreover, the half-inhibitory concentration (IC50) in the assay on HEK293 is 3.72 µM (active).

Source of the values: ChEMBL document CHEMBL1201862, “PubChem BioAssay data set” (2004).
